Format in all cases: biochemical
For assay [1], the target named is CAMK1 (Homo sapiens, UniProt Q14012). Kind of assay: Kinase screen: CAMK-1 assay. As to the method:
(§1) Generally, the same procedure was used for all assays. Since the total assay volume was 25.5 microliters, 0.5 microliters of inhibitors at 51× assay concentration were added to the plates before any other addition.
(§2) The basic procedure was to add 0.5 microliters inhibitor/control in DMSO to plate. Fifteen microliters of enzyme/substrate/buffer mix were added and incubated for 5 min. Ten microliters MgATP at the relevant concentration were added and incubated for 30 min. The assay was stopped by adding 5 microliters of 3% orthophosphoric acid. The assay was transferred to a p81 filter plate and read in a scintillation counter of 30 sec/well. Note that this assay procedure was not followed for MKK1, which instead involved a two-step assay, and PKC alpha, which required the addition of lipid vesicles.
CAMK-1 assay: 5-20 mU of CAMK-1 (diluted in 50 mM Tris (pH 7.5), 0.1 mM EGTA, 1 mg/ml BSA, 0.1%, b-Mercaptoethanol) was assayed against substrate peptide ([…]) (SEQ ID NO: 22) in a final volume of 25.5 μl containing 50 mM Tris (pH 7.5), 0.1 mM EGTA, 0.5 mM CaCl2, 0.3 μM calmodulin, 0.1%, b-Mercaptoethanol, 300 μM substrate peptide, 10 mM magnesium acetate and 0.05 mM [33P-g-ATP] (500-1000 cpm/pmole) and incubated for 30 mins at room temperature. Assays were stopped by addition of 5 μl of 0.5M (3%) orthophosphoric acid. Assays were harvested onto P81 Unifilter plates using a wash buffer of 50 mM orthophosphoric acid.

Assay [2] has as its target ERK1 (Homo sapiens, UniProt P27361). Put plainly: Kinase screen: ERK1 assay. On the procedure:
as §1, §2
ERK1 assay: 5-20 mU of ERK1 (diluted in 50 mM Tris (pH 7.5), 0.1 mM EGTA, 1 mg/ml BSA, 0.1%, b-Mercaptoethanol) was assayed against MBP in a final volume of 25.5 μl containing 50 mM Tris (pH 7.5), 0.1 mM EGTA, 0.1%, b-Mercaptoethanol, 0.33 mg/ml MBP, 10 mM magnesium acetate and 0.005 mM [33P-g-ATP] (500-1000 cpm/pmole) and incubated for 30 mins at room temperature. Assays were stopped by addition of 5 μl of 0.5M (3%) orthophosphoric acid. Assays were harvested onto P81 Unifilter plates using a wash buffer of 50 mM orthophosphoric acid.

The target of assay [3] is T1, PRAK (Homo sapiens, UniProt Q8IW41).
T1 sequence (Q8IW41 1-473): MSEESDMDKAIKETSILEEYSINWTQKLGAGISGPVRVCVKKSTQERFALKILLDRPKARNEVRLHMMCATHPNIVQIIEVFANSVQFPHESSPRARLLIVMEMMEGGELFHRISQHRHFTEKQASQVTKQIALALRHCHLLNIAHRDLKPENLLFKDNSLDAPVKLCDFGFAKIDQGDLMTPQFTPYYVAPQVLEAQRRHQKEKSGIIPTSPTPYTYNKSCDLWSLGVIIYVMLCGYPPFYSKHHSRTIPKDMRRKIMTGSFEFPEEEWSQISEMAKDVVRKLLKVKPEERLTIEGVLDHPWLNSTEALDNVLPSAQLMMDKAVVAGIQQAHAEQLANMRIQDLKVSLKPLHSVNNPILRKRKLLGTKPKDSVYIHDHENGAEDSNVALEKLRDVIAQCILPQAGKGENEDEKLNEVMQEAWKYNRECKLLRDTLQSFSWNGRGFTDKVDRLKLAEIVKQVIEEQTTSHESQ
Put plainly: Kinase screen: PRAK assay. On the procedure:
as §1, §2
(50-1000 cpm/pmole) and incubated for 30 min at room temperature. Assays were stopped by addition of 5 μl of 0.5 M (3%) orthophosphoric acid and then harvested onto P81 Unifilter plates with a wash buffer of 50 mM orthophosphoric acid.

Assay [4] deals with PRK2 (Homo sapiens, UniProt Q16513). Kind of assay: Kinase screen: PRK2 assay. As to the method:
as §1, §2
PRK2 assay: 5-20 mU of PRK2 (diluted in 50 mM Tris (pH 7.5), 0.1 mM EGTA, 1 mg/ml BSA, 0.1%, b-Mercaptoethanol) was assayed against Long S6 peptide ([…]) (SEQ ID NO: 10) in a final volume of 25.5 μl containing 50 mM Tris (pH 7.5), 0.1 mM EGTA, 0.1%, b-Mercaptoethanol, 30 μM Long S6 peptide, 10 mM magnesium acetate and 0.005 mM [33P-g-ATP] (500-1000 cpm/pmole) and incubated for 30 mins at room temperature. Assays were stopped by addition of 5 μl of 0.5M (3%) orthophosphoric acid. Assays were harvested onto P81 Unifilter plates using a wash buffer of 50 mM orthophosphoric acid.

The target in assay [5] is CDK4 (Homo sapiens, UniProt P11802). Kind of assay: CDK4 in vitro kinase inhibition (protocol similar to Example 14). To be noted: for remaining activity at 0.1 µM: 100 nM, mean of three (standard deviation), read-out: CDK4 % remaining kinase activity after incubation with 100 nM of compound; for IC50: Table 7, mean of three experiments.
Setting [6] is: 10 micromolar compound, read-out: mean activity remaining (as a percentage of the original activity), CAMK 1.
Where [7] appears, read: 10 micromolar compound, read-out: mean activity remaining (as a percentage of the original activity), ERK1.
Where [8] appears, read: 10 micromolar compound, read-out: mean activity remaining (as a percentage of the original activity), PRAK.
The mark [9] stands for this setting: 10 micromolar compound, read-out: mean activity remaining (as a percentage of the original activity), PRK2.

Read-outs that look alike come from different tables or passages of the source.

We go through 5 molecules from patent publication US8067424B2, “Selective inhibitors for cyclin-dependent kinases” (Emory University, priority 2007, dated 2011).

Usually remaining activity stands for the signal under treatment as a percentage of the control signal. The term IC50 denotes the midpoint of a concentration-inhibition curve. Read a high IC50 as weaker potency.

Take `CC(C)c1cnn2c(NCc3ccccc3F)cc(NCCCCCN)nc12` [ICEC-0232]: the “mean activity remaining (as a percentage of the original activity), CAMK 1” value in assay [1] (10 micromolar compound) was determined as 29%. Besides, in assay [2] (10 micromolar compound), the “mean activity remaining (as a percentage of the original activity), ERK1” value is on record as 90%. The “mean activity remaining (as a percentage of the original activity), PRAK” value in assay [3] (10 micromolar compound) stood at 97%. For the same molecule, the “mean activity remaining (as a percentage of the original activity), PRK2” value in assay [4] (10 micromolar compound) is recorded as 106%.

For `CC[C@H](CO)Nc1cc(NCc2ccccc2)n2ncc(C(C)C)c2n1` [ICEC0067], the remaining activity at 10 µM was 84% in assay [1] (setting [6]), 69% in assay [2] (setting [7]), 94% in assay [3] (setting [8]) and 96% in assay [4] (setting [9]). The remaining activity at 0.1 µM in assay [5] stood at 88%. The IC50 in assay [5] was over 1000 nM.

For `CC(C)c1cnn2c(NCc3ccccc3)cc(NCCCCCCCN)nc12` [BS-181], the remaining activity at 10 µM came to 48% in assay [1] (CAMK1, 10 μM, read-out: Mean Remaining Enzyme Activity (%)); 108% in assay [2] (ERK1, 10 μM, read-out: Mean Remaining Enzyme Activity (%)); 115% in assay [3] (PRAK, 10 μM, read-out: Mean Remaining Enzyme Activity (%)); 90% in assay [4] (PRK2, 10 μM, read-out: Mean Remaining Enzyme Activity (%)).

As for `C=C[C@H](CO)Nc1cc(NCc2ccccc2)n2ncc(C(C)C)c2n1` [ICEC0065], the remaining activity at 10 µM turned out to be 89% in assay [1] (setting [6]), 84% in assay [2] (setting [7]), 86% in assay [3] (setting [8]) and 105% in assay [4] (setting [9]). Moreover, the remaining activity at 0.1 µM in assay [5] is 77%. In assay [5], this molecule yielded an IC50 of over 1000 nM.

On to `CC(C)c1cnn2c(NCc3ccccc3)cc(N[C@@H](CO)[C@H](O)CO)nc12` [ICEC0318, (3S)-3-(7-(Benzylamino)-3-isopropylpyrazolo[1,5-a]pyrimidin-5-ylamino)butane-1,2,4-triol], for which the remaining activity at 10 µM in assay [1] (setting [6]) was 93%; in assay [2] (setting [7]), 42%; in assay [3] (setting [8]), 97%; in assay [4] (setting [9]), 106%. The remaining activity at 0.1 µM in assay [5] is 88%. Further, the IC50 in assay [5] was over 1000 nM.
